Series [1] has as its target Cytochrome P450 2D6 (Homo sapiens, UniProt P10635).
Description: Inhibition of CYP2D6 in human liver microsomes using dextromethorphan as substrate incubated for 15 mins in presence of NADPH by LC/MS/MS analysis
Series [2] deals with T1, Beta-secretase 1 (Homo sapiens, UniProt P56817).
Series [3] addresses hERG (KCNH2) (Homo sapiens, UniProt Q12809). As to the kind of experiment: in vitro. The conditions noted are these: CHO cells expressing human ERG.
Description: Inhibition of human ERG expressed in CHO cells at 5 uM maintained at -80 mV membrane potential by automated patch-clamp assay relative to control
Series [4] is described as follows: in vitro. The settings on record: human, pooled liver microsomes. (Microsomes from liver hold many membrane-bound enzymes, among them those of drug oxidation.)
Description: Metabolic stability in human pooled liver microsomes assessed as parent compound remaining at 0.1 uM measured after 30 mins in presence of NADPH by LC-MS/MS analysis
A short description of series [5]: in vitro. The conditions noted are these: Sprague-Dawley, rat, liver microsomes.
Description: Metabolic stability in Sprague-Dawley rat liver microsomes assessed as parent compound remaining at 0.1 uM measured after 30 mins in presence of NADPH by LC-MS/MS analysis
Series [6] addresses T1, Beta-secretase 1. The source holds these as a separate data set.
Description: Inhibition of BACE1 in human SH-SY5Y cells expressing wild type betaAPP assessed as reduction in amyloidbeta (1 to 40 residues) level incubated for 24 hrs by HTRF assay
Series [7] has as its target MDR1 (ABCB1, P-gp) (Homo sapiens, UniProt P08183). Put plainly: in vitro. The settings on record: MDCK-MDR1.
Description: Substrate activity at human MDR1 expressed in MDCK cells assessed as efflux ratio
Series [8] can be described thus: physchem.
Description: Dissociation constant, pKa of the compound by capillary electrophoresis method
Series [9] is described as follows: in vitro. The settings on record: dog, MDCK.
Description: Apparent permeability in MDCK cells
For series [10] the following is noted: human, microsomes, 1 h, 10 µM.
Description: Drug metabolism in human liver microsomes assessed as NADPH-dependent covalent bond binding assessed per mg protein at 10 umol/L incubated for 1 hr in presence of NADPH by liquid scintillation counter analysis
The conditions of series [11]: human, microsomes, 1 h, 50 µM.
Description: Drug metabolism in human liver microsomes assessed as NADPH-independent covalent bond binding assessed per mg protein at 50 umol/L incubated for 1 hr in presence of NADPH by liquid scintillation counter analysis
For series [12] the following is noted: human, microsomes, 1 h, 50 µM. This is another data set of the same source.
Description: Drug metabolism in human liver microsomes assessed as total covalent bond binding assessed per mg protein at 50 umol/L incubated for 1 hr in presence of NADPH by liquid scintillation counter analysis
For series [13] the following is noted: human, microsomes, 1 h, 10 µM. The source holds these as a separate data set.
Description: Drug metabolism in human liver microsomes assessed as NADPH-independent covalent bond binding assessed per mg protein at 10 umol/L incubated for 1 hr in presence of NADPH by liquid scintillation counter analysis
For series [14] the following is noted: human, microsomes, 1 h, 10 µM. The source holds these as a separate data set.
Description: Drug metabolism in human liver microsomes assessed as total covalent bond binding assessed per mg protein at 10 umol/L incubated for 1 hr in presence of NADPH by liquid scintillation counter analysis
The conditions of series [15]: human, microsomes, 1 h, 50 µM. This is another data set of the same source.
Description: Drug metabolism in human liver microsomes assessed as NADPH-dependent covalent bond binding at 50 umol/L incubated for 1 hr in presence of NADPH by liquid scintillation counter analysis

T1 sequence (P56817 whole entry): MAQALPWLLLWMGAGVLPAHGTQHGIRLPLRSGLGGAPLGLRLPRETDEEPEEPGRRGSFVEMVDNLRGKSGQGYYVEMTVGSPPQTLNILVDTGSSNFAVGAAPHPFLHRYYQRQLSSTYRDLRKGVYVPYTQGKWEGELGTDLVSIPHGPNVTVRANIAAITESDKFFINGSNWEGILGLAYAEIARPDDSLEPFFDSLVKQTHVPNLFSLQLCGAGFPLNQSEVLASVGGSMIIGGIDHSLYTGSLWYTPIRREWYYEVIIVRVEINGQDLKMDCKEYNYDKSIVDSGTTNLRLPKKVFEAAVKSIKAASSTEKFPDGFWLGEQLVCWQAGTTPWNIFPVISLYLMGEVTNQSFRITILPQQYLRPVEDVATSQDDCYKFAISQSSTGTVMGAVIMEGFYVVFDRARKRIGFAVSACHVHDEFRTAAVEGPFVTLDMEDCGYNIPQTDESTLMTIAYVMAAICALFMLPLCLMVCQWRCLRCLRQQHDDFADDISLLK
Sequence of MDR1 (ABCB1, P-gp) (P08183 whole entry): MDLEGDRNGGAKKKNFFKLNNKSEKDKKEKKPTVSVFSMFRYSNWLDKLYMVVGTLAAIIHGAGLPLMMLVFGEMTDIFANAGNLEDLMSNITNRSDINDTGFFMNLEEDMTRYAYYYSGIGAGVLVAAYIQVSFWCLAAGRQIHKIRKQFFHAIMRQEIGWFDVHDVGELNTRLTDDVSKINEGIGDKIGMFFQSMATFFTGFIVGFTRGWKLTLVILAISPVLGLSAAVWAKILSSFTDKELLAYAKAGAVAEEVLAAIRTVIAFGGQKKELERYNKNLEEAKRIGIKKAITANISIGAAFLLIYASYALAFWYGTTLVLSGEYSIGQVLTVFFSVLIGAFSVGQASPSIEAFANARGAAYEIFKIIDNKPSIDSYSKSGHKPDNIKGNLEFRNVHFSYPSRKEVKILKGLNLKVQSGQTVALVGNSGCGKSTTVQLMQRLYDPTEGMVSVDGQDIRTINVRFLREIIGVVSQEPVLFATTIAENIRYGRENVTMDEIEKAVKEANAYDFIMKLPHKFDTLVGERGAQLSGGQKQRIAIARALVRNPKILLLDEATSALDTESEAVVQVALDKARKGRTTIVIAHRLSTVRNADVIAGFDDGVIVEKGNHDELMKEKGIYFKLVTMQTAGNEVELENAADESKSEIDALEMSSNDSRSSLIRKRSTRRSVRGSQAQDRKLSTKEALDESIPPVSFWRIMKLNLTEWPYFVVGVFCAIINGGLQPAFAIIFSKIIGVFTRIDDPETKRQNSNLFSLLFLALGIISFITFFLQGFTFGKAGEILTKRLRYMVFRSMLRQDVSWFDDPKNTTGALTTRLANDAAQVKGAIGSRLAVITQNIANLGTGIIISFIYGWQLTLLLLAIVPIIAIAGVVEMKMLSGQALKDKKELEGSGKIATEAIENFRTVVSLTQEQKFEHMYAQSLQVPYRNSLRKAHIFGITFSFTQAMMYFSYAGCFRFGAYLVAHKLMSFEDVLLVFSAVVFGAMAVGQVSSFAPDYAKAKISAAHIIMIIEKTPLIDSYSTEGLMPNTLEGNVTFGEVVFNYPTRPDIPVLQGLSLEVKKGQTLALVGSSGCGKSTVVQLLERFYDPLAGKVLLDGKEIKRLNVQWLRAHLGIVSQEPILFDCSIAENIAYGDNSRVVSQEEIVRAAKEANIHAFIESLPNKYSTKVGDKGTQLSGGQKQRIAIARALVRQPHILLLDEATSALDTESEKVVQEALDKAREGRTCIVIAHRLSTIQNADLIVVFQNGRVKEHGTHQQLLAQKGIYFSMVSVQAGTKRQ
Sequence of Cytochrome P450 2D6 (P10635 whole entry): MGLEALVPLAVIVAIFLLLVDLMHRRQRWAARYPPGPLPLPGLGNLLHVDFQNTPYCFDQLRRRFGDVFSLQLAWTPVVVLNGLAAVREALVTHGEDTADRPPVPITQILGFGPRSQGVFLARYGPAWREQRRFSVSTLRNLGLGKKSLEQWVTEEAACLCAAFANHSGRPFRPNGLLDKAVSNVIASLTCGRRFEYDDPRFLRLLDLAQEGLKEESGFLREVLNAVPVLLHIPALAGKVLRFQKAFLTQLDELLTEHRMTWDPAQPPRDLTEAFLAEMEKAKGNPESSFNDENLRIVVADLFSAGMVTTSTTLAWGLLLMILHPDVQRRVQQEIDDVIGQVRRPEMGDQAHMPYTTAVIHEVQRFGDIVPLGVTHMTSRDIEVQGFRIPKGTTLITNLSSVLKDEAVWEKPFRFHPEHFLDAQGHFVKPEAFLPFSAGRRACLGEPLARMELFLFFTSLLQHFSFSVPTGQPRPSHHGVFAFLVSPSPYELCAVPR
Sequence of hERG (KCNH2) (Q12809 whole entry): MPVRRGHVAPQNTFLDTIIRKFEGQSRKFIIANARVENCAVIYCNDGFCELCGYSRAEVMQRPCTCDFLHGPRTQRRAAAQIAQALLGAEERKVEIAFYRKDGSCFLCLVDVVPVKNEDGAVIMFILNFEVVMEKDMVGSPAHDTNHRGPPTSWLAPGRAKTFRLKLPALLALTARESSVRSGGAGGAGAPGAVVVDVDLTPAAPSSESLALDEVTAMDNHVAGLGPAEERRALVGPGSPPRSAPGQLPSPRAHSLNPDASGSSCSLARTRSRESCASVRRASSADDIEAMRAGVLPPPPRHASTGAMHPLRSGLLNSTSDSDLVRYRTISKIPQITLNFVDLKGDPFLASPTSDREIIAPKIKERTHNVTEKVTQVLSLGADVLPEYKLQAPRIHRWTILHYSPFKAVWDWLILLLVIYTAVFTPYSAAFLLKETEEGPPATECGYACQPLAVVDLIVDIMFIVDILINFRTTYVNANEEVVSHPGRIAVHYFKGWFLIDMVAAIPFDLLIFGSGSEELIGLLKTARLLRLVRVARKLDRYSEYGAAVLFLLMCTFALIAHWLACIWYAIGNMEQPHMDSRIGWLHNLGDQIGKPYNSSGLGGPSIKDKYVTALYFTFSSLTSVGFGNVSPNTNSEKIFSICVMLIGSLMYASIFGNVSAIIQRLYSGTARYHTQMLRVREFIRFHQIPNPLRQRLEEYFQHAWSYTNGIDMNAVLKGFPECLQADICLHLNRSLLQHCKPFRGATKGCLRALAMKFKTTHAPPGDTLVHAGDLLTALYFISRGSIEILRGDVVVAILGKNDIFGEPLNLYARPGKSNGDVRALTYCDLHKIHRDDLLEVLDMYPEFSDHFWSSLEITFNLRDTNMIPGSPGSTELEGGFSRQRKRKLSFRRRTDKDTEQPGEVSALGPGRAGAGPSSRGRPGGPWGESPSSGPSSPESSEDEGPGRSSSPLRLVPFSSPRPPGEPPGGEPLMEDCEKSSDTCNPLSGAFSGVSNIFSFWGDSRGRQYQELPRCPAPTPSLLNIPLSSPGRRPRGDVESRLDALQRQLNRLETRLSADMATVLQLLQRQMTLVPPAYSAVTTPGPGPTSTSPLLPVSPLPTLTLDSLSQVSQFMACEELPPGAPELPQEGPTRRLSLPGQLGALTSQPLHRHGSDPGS

For orientation: IC50 means the concentration that inhibits the measured activity by half. Lower therefore signals higher potency. Broadly, the inhibition is the share of the control response that was lost under treatment. A low value points to little suppression. With `C[C@@]1(c2cc(NC(=O)c3ccc(Cl)cn3)ccc2F)C=CSC(N)=N1`, the IC50 in series [1] is less than 1 µM; in series [2] it was 9.6 nM; in series [6], 5.5 nM. This molecule displayed an inhibition at 5 µM in series [3] of 80%. Moreover, the amount remaining at 0.5 h, 0.1 µM in series [4] came to 78%; in [5], 76%.

As to `CC1(c2cccc(C(=O)Nc3ccc(Cl)cn3)c2)CCSC(N)=N1` (stereo not drawn), the IC50 in [2] was 1450 nM; in [6], 170 nM.

In general, efflux ratio refers to a quotient of directional permeabilities that is used to spot active efflux. Consider `C[C@@]1(c2cc(NC(=O)c3ncc(C#N)cc3Cl)ccc2F)C=CSC(N)=N1`, for which the IC50 in [1] is greater than 20 µM; in series [2] it was 20 nM; in series [6], 1.6 nM. Moreover, the efflux ratio in series [7] was found to be 20. This molecule gave an inhibition at 5 µM in series [3] of 48%. Further, the fraction remaining at 0.5 h, 0.1 µM was found to be 85% in series [4] and 87% in [5].

As for `C[C@@]1(c2cc(NC(=O)c3ccc(F)cn3)ccc2F)C=CSC(N)=N1`, the concentration for half-maximal inhibition (IC50) was found to be 11 µM in series [1], 39 nM in series [2] and 4.2 nM in [6]. Besides, the efflux ratio in series [7] worked out at 2. The inhibition at 5 µM in [3] was 67%. For the same molecule, the amount remaining at 0.5 h, 0.1 µM in [4] was determined as 97%; in series [5] it was 60%.

With `COc1cnc(C(=O)Nc2ccc(F)c([C@]3(C)C=CSC(N)=N3)c2)cn1`, the IC50 in series [1] was less than 1 µM; in series [2] it was 21 nM; in series [6], 4.4 nM. In addition, the efflux ratio in series [7] came to 1.4. Also, the inhibition at 5 µM in series [3] came to 29%. For the same molecule, the fraction remaining at 0.5 h, 0.1 µM worked out at 27% in series [4] and 88% in series [5].

One may read the pKa as the pH at which an ionisable group is half protonated. Higher therefore signals a weaker acid or stronger base. A word on the Papp: it is the rate of passage across a membrane or cell layer, normalised by area and donor concentration. Molecule `C=C1C[C@@](C)(c2cc(NC(=O)c3ccc(C#N)cn3)ccc2F)N=C(N)S1` had a pKa in [8] of 7.8. Further, the IC50 in [2] amounted to 9.1 nM; in [6], 1.1 nM. In addition, the efflux ratio in series [7] came out at 5.3. Moreover, the inhibition at 5 µM in [3] worked out at 78%. The share remaining at 0.5 h, 0.1 µM in series [4] amounted to 65%; in series [5], 8%. Moreover, the Papp in series [9] was found to be 38 ×10⁻⁶ cm/s.

Take `C[C@@]1(c2cc(NC(=O)c3ccc(C#N)cn3)ccc2F)CCSC(N)=N1`: in [8], the pKa stood at 9. Further, in series [3], testing at 5 µM gave an inhibition of 91%. Moreover, the amount remaining at 0.5 h, 0.1 µM in series [4] stood at 104%; in [5] it was 66%. Besides, the Papp in series [9] was determined as 12 ×10⁻⁶ cm/s.

In series [8], `N#Cc1ccc(C(=O)Nc2ccc(F)c([C@]3(CF)CCSC(N)=N3)c2)nc1` had a pKa of 7.6. For the same molecule, the 50% inhibitory concentration (IC50) in [2] came to 16 nM; in series [6], 0.62 nM. The efflux ratio in series [7] turned out to be 22. The molecule also registered an inhibition at 5 µM in series [3] of 90%. The values for the share remaining at 0.5 h, 0.1 µM in series [4] and in series [5] were 86% and 64%, respectively. The molecule further showed a Papp in [9] of 22 ×10⁻⁶ cm/s.

As for `C[C@@]1(c2cc(C(=O)Nc3ccc(Cl)cn3)ccc2F)CCSC(N)=N1`, the 50% inhibitory concentration (IC50) in series [2] was determined as 6.7 nM; in series [6] it was 0.84 nM.

Regarding `CCc1ccc(CCOc2ccc(CC3SC(=O)NC3=O)cc2)nc1` (stereo not drawn) [PIOGLITAZONE], the Drug metabolism in series [10] was found to be 594 pmol; in series [11], 12 pmol; in series [12] it was 3458 pmol; in series [13], 4 pmol; in series [14] it was 599 pmol; in [15], 3446 pmol.

The values above are taken from ChEMBL document CHEMBL4811232 (J Med Chem, 2021).
